# Assay results published in ChEMBL document CHEMBL4251607, “Antagonists of the adenosine A2A receptor based on a 2-arylbenzoxazole scaffold: Investigation of the C5- and C7-positions to enhance affinity” (Eur J Med Chem, 2018).
# Assays:
# Adenosine receptor A2a [1] = target: T1, Adenosine receptor A2a (Homo sapiens, UniProt P29274); experiment: Displacement of [3H]-ZM241385 from human adenosine A2A receptor expressed in CHO cell membranes after 1 hr by TopCount microplate scintillation counting method
# T1 sequence (P29274 whole entry): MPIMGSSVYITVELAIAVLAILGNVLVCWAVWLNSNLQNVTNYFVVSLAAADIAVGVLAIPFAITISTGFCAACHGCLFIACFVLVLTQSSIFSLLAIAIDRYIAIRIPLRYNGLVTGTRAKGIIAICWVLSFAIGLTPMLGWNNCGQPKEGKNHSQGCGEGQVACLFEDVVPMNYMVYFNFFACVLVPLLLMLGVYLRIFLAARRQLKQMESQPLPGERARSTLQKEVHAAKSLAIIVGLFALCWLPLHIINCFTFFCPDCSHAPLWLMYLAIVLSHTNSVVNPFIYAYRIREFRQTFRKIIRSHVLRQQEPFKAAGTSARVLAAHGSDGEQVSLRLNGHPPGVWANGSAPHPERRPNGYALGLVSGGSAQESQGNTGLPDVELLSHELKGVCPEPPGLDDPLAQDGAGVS
# Adenosine receptor A2a [2] = target: T1, Adenosine receptor A2a; experiment: Antagonist activity at human adenosine A2A receptor expressed in HEK293 cell membranes assessed as inhibition of […]-induced [35S]GTPgammaS binding preincubated for 10 mins followed by […] addition by TopCount scintillation counting method; format: functional
# Adenosine receptor A2a [3] = target: T1, Adenosine receptor A2a; experiment: Antagonist activity at adenosine A2A receptor (unknown origin)
# Adenosine receptor A2a [4] = target: T1, Adenosine receptor A2a; experiment: Displacement of [3H]-ZM241385 from human adenosine A2A receptor expressed in HEK293 cell membranes after 1 hr by scintillation counting method
# in vitro = settings: human
# Description: Intrinsic clearance in human liver microsomes at 0.1 uM
# [5] = Protein binding in human plasma at 10 uM after 4 hrs
# [6] = Apparent permeability from apical to basolateral side in human Caco2 cells at 10 uM after 40 mins; settings: Caco-2
# [7] = Half life in human liver microsomes at 0.1 uM
# SH-SY5Y [8] = experiment: Cytotoxicity against human SH-SY5Y cells assessed as cell death at 10 uM after 72 hrs by MTT assay relative to control; format: cell-based
# physchem = settings: PBS, pH 7.4
# SH-SY5Y [9] = experiment: Cytotoxicity against human SH-SY5Y cells assessed as cell death after 72 hrs by MTT assay; format: cell-based
# [10] = Apparent permeability from basolateral to apical side in human Caco2 cells at 10 uM after 40 mins; settings: Caco-2
# Adenosine receptor A1 = target: T2, Adenosine receptor A1 (Homo sapiens, UniProt P30542); experiment: Displacement of [3H]DPCPX from human adenosine A1 receptor expressed in CHO cell membranes
# T2 sequence (P30542 whole entry): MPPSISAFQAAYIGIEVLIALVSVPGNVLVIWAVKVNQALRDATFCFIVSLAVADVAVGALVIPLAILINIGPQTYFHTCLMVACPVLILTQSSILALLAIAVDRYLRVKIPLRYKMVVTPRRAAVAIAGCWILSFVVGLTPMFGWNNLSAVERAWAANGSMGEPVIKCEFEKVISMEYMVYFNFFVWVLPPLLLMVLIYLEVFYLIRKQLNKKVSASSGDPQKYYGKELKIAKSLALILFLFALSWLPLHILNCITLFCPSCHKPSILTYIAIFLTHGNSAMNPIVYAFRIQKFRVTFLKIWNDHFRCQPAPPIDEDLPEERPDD
# [11] = target: T3, Adenosine receptor A2b (Homo sapiens) (UniProt P29275); experiment: Displacement of [3H]CPX from human adenosine A2B receptor expressed in HEK293 cell membranes at 10 uM relative to control
# T3 sequence (whole entry): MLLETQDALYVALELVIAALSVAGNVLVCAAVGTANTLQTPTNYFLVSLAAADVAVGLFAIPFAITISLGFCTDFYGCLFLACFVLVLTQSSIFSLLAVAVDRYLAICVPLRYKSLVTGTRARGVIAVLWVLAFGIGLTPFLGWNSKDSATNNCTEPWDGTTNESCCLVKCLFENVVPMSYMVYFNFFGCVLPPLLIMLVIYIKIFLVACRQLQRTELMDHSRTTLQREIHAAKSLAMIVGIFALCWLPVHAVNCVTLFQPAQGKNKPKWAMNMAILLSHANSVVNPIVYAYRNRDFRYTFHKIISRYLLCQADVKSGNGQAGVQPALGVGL
# [12] = target: T4, Adenosine receptor A3 (Homo sapiens) (UniProt P0DMS8); experiment: Displacement of [125I]ABMECA from human adenosine A3 receptor expressed in HEK293 cell membranes at 10 uM relative to control
# T4 sequence (whole entry): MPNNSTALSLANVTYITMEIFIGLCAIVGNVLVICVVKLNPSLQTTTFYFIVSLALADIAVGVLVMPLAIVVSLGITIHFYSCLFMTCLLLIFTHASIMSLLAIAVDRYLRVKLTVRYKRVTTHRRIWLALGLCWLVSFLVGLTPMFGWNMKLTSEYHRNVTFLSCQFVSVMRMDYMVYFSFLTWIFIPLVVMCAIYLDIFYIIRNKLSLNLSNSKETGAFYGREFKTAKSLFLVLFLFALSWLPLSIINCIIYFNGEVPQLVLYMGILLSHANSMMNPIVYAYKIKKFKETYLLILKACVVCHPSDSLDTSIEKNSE
smiles,measurement,setting,value
O=C(CN1CCCCC1)Nc1cc(-c2ccco2)c2oc(-c3ccco3)nc2c1,Ki,Adenosine receptor A2a [1],210 nM
same,IC50,Adenosine receptor A2a [2],486 nM
Cc1ccc(-c2cc(N)cc3nc(-c4ccco4)oc23)cc1,Ki,Adenosine receptor A2a [1],> 10000 nM
COCCOc1ccc(N2CCN(CCn3ncc4c3nc(N)n3nc(-c5ccco5)nc43)CC2)cc1 [PRELADENANT],Ki,Adenosine receptor A2a [3],0.5 nM
Nc1cc(-c2ccc(C(F)(F)F)cc2)c2oc(-c3ccco3)nc2c1,Ki,Adenosine receptor A2a [1],> 10000 nM
COc1ccc(-c2cc(N)cc3nc(-c4ccco4)oc23)cc1OC,Ki,Adenosine receptor A2a [1],90 nM
Nc1cc(-c2ccccc2)c2oc(-c3ccco3)nc2c1,Ki,Adenosine receptor A2a [1],202 nM
CCOCCOc1ccc(N2CCN(CCC(=O)Nc3cc(-c4ccco4)c4oc(-c5ccco5)nc4c3)CC2)cc1,Ki,Adenosine receptor A2a [1],> 10000 nM
Nc1ccc2oc(-c3ccco3)nc2c1,Ki,Adenosine receptor A2a [1],10000 nM
same,Ki,Adenosine receptor A2a [4],10000 nM
Nc1cc(-c2cccs2)c2oc(-c3ccco3)nc2c1,Ki,Adenosine receptor A2a [1],71 nM
Nc1cc(-c2ccc(F)cc2)c2oc(-c3ccco3)nc2c1,Ki,Adenosine receptor A2a [1],438 nM
Nc1cc(N2CCOCC2)c2oc(-c3ccco3)nc2c1,Ki,Adenosine receptor A2a [1],> 10000 nM
O=C(CCN1CCc2ccccc2C1)Nc1cc(-c2ccco2)c2oc(-c3ccco3)nc2c1,microsomal CLint at 0.1 µM,in vitro; liver microsomes,< 115 µL/min/mg
same,Ki,Adenosine receptor A2a [1],30 nM
same,"fraction unbound at 4 h, 10 µM",[5],0.001
same,"Papp A→B at 40 min, 10 µM",[6],0.2 ×10⁻⁶ cm/s
same,half-life at 0.1 µM,[7]; liver microsomes,> 1 h
same,Activity,SH-SY5Y [8],37%
same,solubility at 24 h,physchem,8 µM
O=C(CCCN1CCCCC1)Nc1cc(-c2ccco2)c2oc(-c3ccco3)nc2c1,Ki,Adenosine receptor A2a [1],98 nM
Nc1cc(NC(=O)CN2CCCCC2)cc2nc(-c3ccco3)oc12,Ki,Adenosine receptor A2a [1],480 nM
same,IC50,Adenosine receptor A2a [2],250 nM
Nc1cc(NC(=O)CN2CCCCC2)c2oc(-c3ccco3)nc2c1,Ki,Adenosine receptor A2a [1],> 10000 nM
COc1ccc(-c2cc(NC(=O)CCN3CCc4ccccc4C3)cc3nc(-c4ccco4)oc23)cc1OC,Ki,Adenosine receptor A2a [1],> 10000 nM
O=C(CCN1CCCCC1)Nc1cc(-c2ccco2)c2oc(-c3ccco3)nc2c1,microsomal CLint at 0.1 µM,in vitro; liver microsomes,172 µL/min/mg
same,Ki,Adenosine receptor A2a [1],81 nM
same,"fraction unbound at 4 h, 10 µM",[5],0.02
same,"Papp A→B at 40 min, 10 µM",[6],2.3 ×10⁻⁶ cm/s
same,half-life at 0.1 µM,[7]; liver microsomes,0.683 h
same,IC50,SH-SY5Y [9],9000 nM
same,solubility at 24 h,physchem,165 µM
same,"Papp B→A at 40 min, 10 µM",[10],1.2 ×10⁻⁶ cm/s
Nc1cc(-c2ccccn2)c2oc(-c3ccco3)nc2c1,Ki,Adenosine receptor A2a [1],135 nM
O=C(CCN1CCOCC1)Nc1cc(-c2ccco2)c2oc(-c3ccco3)nc2c1,microsomal CLint at 0.1 µM,in vitro; microsomes,< 115 µL/min/mg
same,Ki,Adenosine receptor A2a [1],90 nM
same,"fraction unbound at 4 h, 10 µM",[5],0.02
same,"Papp A→B at 40 min, 10 µM",[6],11 ×10⁻⁶ cm/s
same,half-life at 0.1 µM,[7]; microsomes,> 1 h
same,IC50,SH-SY5Y [9],77000 nM
same,solubility at 24 h,physchem,173 µM
same,"Papp B→A at 40 min, 10 µM",[10],1.6 ×10⁻⁶ cm/s
Nc1cc(-c2ccco2)c2oc(-c3ccco3)nc2c1,Ki,Adenosine receptor A1,7.7 nM
same,microsomal CLint at 0.1 µM,in vitro; liver microsomes,< 115 µL/min/mg
same,Ki,Adenosine receptor A2a [1],40 nM
same,"fraction unbound at 4 h, 10 µM",[5],0.1
same,"Papp A→B at 40 min, 10 µM",[6],77 ×10⁻⁶ cm/s
same,half-life at 0.1 µM,[7]; liver microsomes,> 1 h
same,IC50,SH-SY5Y [9],40000 nM
same,inhibition,[11],94%
same,IC50,Adenosine receptor A2a [2],70.6 nM
same,solubility at 24 h,physchem,31 µM
same,inhibition,[12],90%
same,"Papp B→A at 40 min, 10 µM",[10],37 ×10⁻⁶ cm/s
O=C(CN1CCCCC1)Nc1ccc2oc(-c3ccco3)nc2c1,Ki,Adenosine receptor A2a [1],1000 nM
same,Ki,Adenosine receptor A2a [4],1000 nM
same,Activity,SH-SY5Y [8],0%
